Source: ChEMBL document CHEMBL4431353, “Optimization of a Series of Bivalent Triazolopyridazine Based Bromodomain and Extraterminal Inhibitors: The Discovery of (3R)-4-[2-[4-[1-(3-Methoxy-[1,2,4]triazolo[4,3-b]pyridazin-6-yl)-4-piperidyl]phenoxy]ethyl]-1,3-dimethyl-piperazin-2-one (AZD5153)” (J Med Chem, 2016)
Values after ≈ are worked out from the molar mass of the structure shown.

Key:
[1] = Thermodynamic solubility of compound in pH 7.4 solution; type: physicochemical; settings: buffer, read-out: Therm_solubility
[2] = Lipophilicity, log D of compound at pH 7.4; type: physicochemical; settings: buffer
[3] = target: Bromodomain-containing protein 4 (Homo sapiens, UniProt O60885, N433A)
[4] = target: Bromodomain-containing protein 4 (Homo sapiens, UniProt O60885, N140A)
[5] = target: T1, Bromodomain-containing protein 4 (Homo sapiens, UniProt O60885); assay: Displacement of Alexa647-labeled JQ1 derivative from wild type BRD4 tandem domain (44 to 460 residues) (unknown origin) incubated for 1 hr by fluorescence polarization assay
[6] = Intrinsic clearance in human hepatocytes assessed per million cells; type: ADME, cell-based, Hepatocyte; settings: read-out: CLH
[7] = target: T1, Bromodomain-containing protein 4; assay: Inhibition of BRD4 in human MM1S cells assessed as down regulation of c-Myc incubated for 16 hrs by flow cytometry; type: cell-based
MM1.S = assay: Growth inhibition of human MM1S cells after 72 hrs by alamar blue assay; type: functional
[8] = target: T1, Bromodomain-containing protein 4; assay: Inhibition of BRD4 in human MCF7 cells assessed as down regulation of ERalpha after 18 to 24 hrs by Hoechst staining based cellomics arrayscan analysis; type: cell-based
[9] = Unbound fraction in human plasma; type: ADME, cell-free
[10] = Apparent permeability from apical to basolateral side in human Caco2 cells; type: ADME, cell-based; settings: Caco-2
[11] = Volume of distribution at steady state in dog; type: ADME, Canis lupus familiaris; settings: in vivo, read-out: Vdss
[12] = Oral bioavailability in rat; type: ADME, organism-based; settings: in vivo
[13] = Oral bioavailability in dog; type: ADME, organism-based, Canis lupus familiaris; settings: in vivo
[14] = Plasma clearance in dog; type: ADME, Canis lupus familiaris
[15] = Intrinsic clearance in dog hepatocytes assessed per million cells; type: ADME, cell-based, Canis lupus familiaris, Hepatocyte; settings: read-out: CLH
[16] = Volume of distribution at steady state in rat; type: ADME; settings: in vivo, read-out: Vdss
[17] = Intrinsic clearance in rat hepatocytes assessed per million cells; type: ADME, cell-based, Hepatocyte; settings: read-out: CLH
[18] = Unbound fraction in rat plasma; type: ADME, cell-free
[19] = Plasma clearance in rat; type: ADME
[20] = Dissociation constant, basic pKa of compound; type: physicochemical
[21] = Unbound fraction in dog plasma; type: ADME, cell-free, Canis lupus familiaris
[22] = target: T1, Bromodomain-containing protein 4; assay: Inhibition of BRD4 in human LNCAP cells assessed as down regulation of nuclear AR level by immunofluorescence assay; type: cell-based

| solubility thermodynamic [1] | logD [2] | Ki [3] | Ki [4] | Ki [5] | hepatocyte CLint [6] | IC50 [7] | GI50 (MM1.S) | IC50 [8] | IC50 [22] | further results | SMILES |
| --- | --- | --- | --- | --- | --- | --- | --- | --- | --- | --- | --- |
| 670 µM (≈ 311 µg/mL) | 2.4 | 251 nM | 200 nM | 15.8 nM | 7.2 µL/min/1e6 cells | 25.1 nM | 5.01 nM | 39.8 nM | – | – | Cc1nnc2ccc(N3CCC(c4ccc(OCCN5CCN(C)C(=O)[C@H]5C)cc4)CC3)nn12 |
| 760 µM (≈ 394 µg/mL) | 2 | 158 nM | 316 nM | 50.1 nM | 2.7 µL/min/1e6 cells | – | – | 158 nM | – | – | COc1nnc2ccc(N3CCC(c4ccc(N5CCC(N6CCN(C)C(=O)[C@H]6C)CC5)cc4)CC3)nn12 |
| 900 µM (≈ 432 µg/mL) | 2.2 | 251 nM | 1000 nM | 126 nM | < 1.4 µL/min/1e6 cells | 79.4 nM | – | 316 nM | – | – | COc1nnc2ccc(N3CCC(c4ccc(OCCN5CCN(C)C(=O)[C@@H]5C)cc4)CC3)nn12 |
| 280 to 570 µM (≈ 130 to 264 µg/mL) | 2.5 | 100 nM | 126 nM | 3.16 nM | 2 to 2.2 µL/min/1e6 cells | 10 nM | 5.01 nM | 25.1 nM | – | fraction unbound [9]: 0.25; Papp A→B [10]: 28 ×10⁻⁶ cm/s; Vd [11]: 0.9 L/kg; bioavailability [12]: 72%; bioavailability [13]: 98%; clearance [14]: 3 mL/min/kg; hepatocyte CLint [15]: < 1 µL/min/1e6 cells; Vd [16]: 0.7 L/kg; hepatocyte CLint [17]: < 1 µL/min/1e6 cells; fraction unbound [18]: 0.02; clearance [19]: 3 mL/min/kg; pKa [20]: 6.3; fraction unbound [21]: 0.24 | COc1nnc2ccc(N3CCC(c4ccc(CCN5CCN(C)C(=O)[C@H]5C)cc4)CC3)nn12 |
| 63 µM (≈ 32.6 µg/mL) | 3.3 to 4.2 | 398 nM | 63.1 nM | 7.94 nM | 70 µL/min/1e6 cells | 10 nM | 5.01 nM | 25.1 nM | 39.8 nM | – | C[C@@H]1C(=O)N(C)CCN1CCOc1ccc(C2CCN(c3ccc4nnc(C(F)(F)F)n4n3)CC2)cc1 |
| 460 to 1000 µM (≈ 232 to 505 µg/mL) | 1.7 | 158 nM | 100 nM | 10 nM | 4 to 4.1 µL/min/1e6 cells | < 2 nM | 1.58 nM | 3.98 nM | – | fraction unbound [9]: 0.32; Papp A→B [10]: 46 ×10⁻⁶ cm/s; Vd [11]: 0.7 L/kg; bioavailability [12]: 57%; bioavailability [13]: 73%; clearance [14]: 5 mL/min/kg; hepatocyte CLint [15]: 3 µL/min/1e6 cells; Vd [16]: 1.61 L/kg; hepatocyte CLint [17]: < 1 µL/min/1e6 cells; fraction unbound [18]: 0.05; clearance [19]: 7 mL/min/kg; pKa [20]: 5.9; fraction unbound [21]: 0.27 | COc1nnc2ccc(N3CCC(c4ccc(N5CC(CN6CCN(C)C(=O)[C@H]6C)C5)cc4)CC3)nn12 |
| 750 µM (≈ 370 µg/mL) | 2.3 | 126 nM | 251 nM | 7.94 nM | 80 µL/min/1e6 cells | 12.6 nM | 6.31 nM | 20 nM | – | – | COc1nnc2ccc(N3CCC(c4ccc(OCCN5[C@H](C)CN(C)C(=O)[C@H]5C)cc4)CC3)nn12 |
| 280 µM (≈ 142 µg/mL) | 3.4 | 50.1 nM | 158 nM | 5.01 nM | 48 µL/min/1e6 cells | – | – | 39.8 nM | – | – | COc1nnc2ccc(N3CCC(c4ccc(OCCN5C[C@@H](C)N(C(C)=O)[C@@H](C)C5)cc4)CC3)nn12 |
| 870 µM (≈ 427 µg/mL) | 1.7 | 200 nM | 398 nM | 63.1 nM | < 1.2 µL/min/1e6 cells | – | – | 794 nM | – | – | COc1nnc2ccc(N3CCC(c4ccc(N5CC(N6CCN(C)C(=O)[C@H]6C)C5)cc4)CC3)nn12 |
| > 1000 µM | 2.4 | 79.4 nM | 63.1 nM | 3.98 nM | 5.1 µL/min/1e6 cells | 3.16 nM | < 1.58 nM | 20 nM | – | – | COc1nnc2ccc(N3CCC(c4ccc(OCCCN5CCN(C)C(=O)[C@H]5C)cc4)CC3)nn12 |
| 660 µM (≈ 327 µg/mL) | 2.9 | 158 nM | 126 nM | 12.6 nM | 21 µL/min/1e6 cells | 20 nM | – | 31.6 nM | 25.1 nM | – | CSc1nnc2ccc(N3CCC(c4ccc(OCCN5CCN(C)C(=O)[C@H]5C)cc4)CC3)nn12 |
| 1600 to 1680 µM (≈ 788 to 828 µg/mL) | 2.4 | 316 nM | 316 nM | 12.6 nM | 4 to 4.4 µL/min/1e6 cells | 15.8 nM | 3.16 nM | 63.1 nM | 25.1 nM | fraction unbound [9]: 0.16; bioavailability [12]: 42%; hepatocyte CLint [15]: 18 µL/min/1e6 cells; Vd [16]: 0.4 L/kg; hepatocyte CLint [17]: 13 µL/min/1e6 cells; fraction unbound [18]: 0.04; clearance [19]: 6 mL/min/kg; fraction unbound [21]: 0.09 | C[C@@H]1C(=O)N(C)CCN1CCOc1ccc(C2CCN(c3ccc4nnc(N(C)C)n4n3)CC2)cc1 |
| 63 µM (≈ 30.5 µg/mL) | 3.1 | 200 nM | 316 nM | 12.6 nM | 24 µL/min/1e6 cells | 79.4 nM | 19.9 nM | 39.8 nM | 25.1 nM | – | C[C@@H]1C(=O)N(C)CCN1CCOc1ccc(C2CCN(c3ccc4nnc(Cl)n4n3)CC2)cc1 |
| 1000 µM (≈ 450 µg/mL) | 1.9 | 6310 nM | 2510 nM | > 1000 nM | 180 µL/min/1e6 cells | 1260 nM | – | > 3160 nM | 1580 nM | – | C[C@@H]1C(=O)N(C)CCN1CCOc1ccc(C2CCN(c3ccc4nncn4n3)CC2)cc1 |
| 52 µM (≈ 26.2 µg/mL) | 3.1 | 398 nM | 7940 nM | 2510 nM | 26 µL/min/1e6 cells | – | – | 1000 nM | – | – | CN1CCN(CCOc2ccc(C3CCN(c4ccc5nnc(C(F)(F)F)n5n4)CC3)cc2)C(=O)C1 |
| 65 µM (≈ 32.7 µg/mL) | 3 | 316 nM | 1000 nM | 200 nM | 18 µL/min/1e6 cells | – | – | 501 nM | 316 nM | – | CN1CCN(CCOc2ccc(C3CCN(c4ccc5nnc(C(F)(F)F)n5n4)CC3)cc2)CC1=O |
| > 1000 µM | 2.5 | 50.1 nM | 15.8 nM | 1.58 nM | 12 µL/min/1e6 cells | < 2 nM | < 2 nM | 1.58 nM | – | fraction unbound [9]: 0.19; Papp A→B [10]: 30 ×10⁻⁶ cm/s; Vd [11]: 0.6 L/kg; bioavailability [12]: 40%; bioavailability [13]: 28%; clearance [14]: 11 mL/min/kg; hepatocyte CLint [15]: 7 µL/min/1e6 cells; Vd [16]: 1.5 L/kg; hepatocyte CLint [17]: 13 µL/min/1e6 cells; fraction unbound [18]: 0.06; clearance [19]: 17 mL/min/kg; pKa [20]: 6.2; fraction unbound [21]: 0.16 | COc1nnc2ccc(N3CCC(c4ccc(OCCN5[C@H](C)CN(C(C)=O)C[C@@H]5C)cc4)CC3)nn12 |
| 470 µM (≈ 239 µg/mL) | 2.8 | 63.1 nM | 100 nM | 6.31 nM | 12 µL/min/1e6 cells | – | – | 20 nM | – | – | COc1nnc2ccc(N3CCC(c4ccc(OCCCCN5CCN(C)C(=O)[C@H]5C)cc4)CC3)nn12 |
